In ChEMBL document CHEMBL1125572, “Adenosine receptors: pharmacology, structure-activity relationships, and therapeutic potential” (J Med Chem, 1992):

What was measured:
Adenosine receptor A1 [1] = target: T1, Adenosine receptor A1 (Rattus norvegicus, UniProt P25099)
T1 sequence (P25099 whole entry): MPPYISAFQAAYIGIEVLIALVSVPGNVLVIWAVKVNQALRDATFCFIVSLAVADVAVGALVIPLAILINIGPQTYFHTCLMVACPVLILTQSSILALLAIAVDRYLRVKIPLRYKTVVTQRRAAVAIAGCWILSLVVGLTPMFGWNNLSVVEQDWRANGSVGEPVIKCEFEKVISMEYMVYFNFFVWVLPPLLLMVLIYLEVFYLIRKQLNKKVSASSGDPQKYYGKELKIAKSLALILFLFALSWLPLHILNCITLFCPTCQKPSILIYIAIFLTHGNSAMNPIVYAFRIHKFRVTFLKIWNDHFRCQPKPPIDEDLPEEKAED

Adenosine receptor A1 [2] = target: T1, Adenosine receptor A1; test: Binding affinity for Adenosine A1 receptor using [3H]- CHA or [3H]- PIA
Adenosine A2 receptor [3] = target: Adenosine A2 receptor (Rattus norvegicus, UniProt P29276+P30543); test: Binding affinity for adenosine A2 receptor using [3H]- NECA; assay type: protein assay
Adenosine receptor A1 [4] = target: T2, Adenosine receptor A1 (Bos taurus, UniProt P28190); test: Binding affinity for adenosine A1 receptor using [3H]- CHA or [3H]- PIA in bovine brain cortical membranes; assay type: cell membranes
T2 sequence (P28190 whole entry): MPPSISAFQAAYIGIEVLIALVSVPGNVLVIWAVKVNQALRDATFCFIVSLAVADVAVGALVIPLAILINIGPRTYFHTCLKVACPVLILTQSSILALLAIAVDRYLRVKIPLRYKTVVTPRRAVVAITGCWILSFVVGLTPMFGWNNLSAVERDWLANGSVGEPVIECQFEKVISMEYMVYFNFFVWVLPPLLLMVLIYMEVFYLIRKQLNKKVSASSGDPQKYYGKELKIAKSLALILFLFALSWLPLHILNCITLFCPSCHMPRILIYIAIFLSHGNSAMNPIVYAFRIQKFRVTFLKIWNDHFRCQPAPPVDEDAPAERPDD

Adenosine receptor A1 [5] = target: T1, Adenosine receptor A1; test: Binding affinity for adenosine A1 receptor using [3H]- CHA or [3H]- PIA antagonism of adenylate cyclase inhibition in rat adipocytes; assay type: cell-based
Adenosine A2 receptor [6] = target: T3, Adenosine A2 receptor (Homo sapiens, UniProt P29275+P29274); test: Binding affinity for adenosine A2 receptor using [3H]- NECA antagonism of adenylate cyclase activation in human platelets
[7] = target: Adenosine A2 receptor (Rattus norvegicus) (UniProt P29276+P30543); test: Binding affinity for Adenosine A2 receptor using [3H]- NECA; assay type: protein assay
[8] = test system: Adenosine receptors; A1 & A2 (Rattus norvegicus); test: Ratio of adenosine A2 to A1 receptor binding
Adenosine receptor A1 [9] = target: T2, Adenosine receptor A1; test: Binding affinity for adenosine A1 receptor using [3H]- CHA or [3H]- PIA in bovine brain
Adenosine A2 receptor [10] = target: T3, Adenosine A2 receptor; test: Binding affinity for adenosine A2 receptor using [3H]- NECA in bovine brain; conditions: Bos taurus; target entry is the homologue from another species
Adenosine A2 receptor [11] = target: T3, Adenosine A2 receptor; test: Binding affinity for adenosine A2 receptor using [125I]PAPA-APEC in bovine striatum; assay type: tissue-based; conditions: Bos taurus, target entry is the homologue from another species

With `FC(F)(F)c1nnc2c(NC3CCCC3)nc3ccc(Cl)cc3n12` the Ki (Adenosine receptor A1 [1]) was 28 nM.

`OC[C@H]1O[C@@H](n2cnc3c(NCCc4ccccc4)ncnc32)[C@H](O)[C@@H]1O` showed a Ki (Adenosine receptor A1 [2]) of 4.1 nM.

With `CCNC(=O)[C@H]1O[C@@H](n2cnc3c(N)nc(NCCc4ccc(CCC(=O)NCCN)cc4)nc32)[C@H](O)[C@@H]1O` the Ki (Adenosine A2 receptor [3]) was 5.7 nM and the Ki (Adenosine receptor A1 [1]) was 240 nM.

Work on `CCCn1c(=O)c2nc(-c3ccc(OCC(=O)NCCNC(=O)CCc4ccc(N)c(I)c4)cc3)[nH]c2n(CCC)c1=O` yielded a Ki (Adenosine receptor A1 [4]) of 0.1 nM.

For `CCCCCCC#Cc1nc(N)c2ncn([C@@H]3O[C@H](CO)[C@@H](O)[C@H]3O)c2n1`, the Ki (Adenosine receptor A1 [1]) was 211 nM.

`Nc1nc(NCCC2C=CCCC2)nc2c1ncn2C1O[C@H](CO)[C@@H](O)[C@H]1O` (stereo partly specified) showed a Ki (Adenosine receptor A1 [1]) of 2700 nM.

With `Cc1c(C)n([C@H](C)Cc2ccccc2)c2nc(-c3ccccc3)nc(N)c12` the Ki (Adenosine receptor A1 [1]) was 4.7 nM.

In the case of `O=C(Cc1ccc(NC(=O)Cc2ccc(Nc3ncnc4c3ncn4C3O[C@H](CO)[C@@H](O)[C@H]3O)cc2)cc1)NCC/N=C(/S)Nc1ccc2c(c1)C(=O)OC21c2ccc(O)cc2Oc2cc(O)ccc21` (stereo partly specified), the Ki (Adenosine receptor A1 [2]) is reported as 7.1 nM.

`Cc1ccc(CCOc2nc(N)c3ncn(C4O[C@@H](CO)[C@H](O)[C@@H]4O)c3n2)cc1` (stereo partly specified) showed a Ki (Adenosine receptor A1 [1]) of 48 nM.

Molecule `Nc1nc2ccc(Cl)cc2n2c(-c3ccccc3)nnc12` has a Ki (Adenosine receptor A1 [1]) of 270 nM.

With `Nc1ccc(CCNc2ncnc3c2ncn3C2O[C@H](CO)[C@@H](O)[C@H]2O)cc1I` (stereo partly specified) the Ki (Adenosine receptor A1 [2]) was 2 nM.

`CCNC(=O)[C@H]1OC(n2cnc3c(N)nc(NCCc4ccc(CCC(=O)NCCNC(=O)Cc5ccc(N)c(I)c5)cc4)nc32)[C@H](O)[C@@H]1O` (stereo partly specified) was tested, and the Ki (Adenosine A2 receptor [3]) was 1 nM.

Molecule `Oc1cccc(C2=CSC3=Nc4ccccc4CN23)c1` has a Ki (Adenosine receptor A1 [1]) of 3100 nM.

`CCCn1c(=O)c2[nH]c(C3CCC(=O)C3)nc2n(CCC)c1=O` (stereo unspecified) showed a Ki (Adenosine receptor A1 [1]) of 10.5 nM.

In the case of `C#CCn1c(=O)c2c(ncn2C)n(C)c1=O`, the Ki (Adenosine receptor A1 [1]) is reported as 22000 nM.

With `CCCn1c(=O)c2nc([C@H]3CC[C@H](CNC(C)=O)CC3)[nH]c2n(CCC)c1=O` the Ki (Adenosine receptor A1 [5]) was 8 nM and the Ki (Adenosine A2 receptor [6]) was 20 nM.

Molecule `CCCn1c(=O)c2nc(C3CCCC3)[nH]c2n(CCc2ccc(N)c(I)c2)c1=O` has a Ki (Adenosine receptor A1 [1]) of 0.23 nM.

`OCCCNc1ncnc2c1ncn2C1O[C@H](CO)[C@@H](O)[C@H]1O` (stereo partly specified) gave a Ki (Adenosine receptor A1 [2]) of 7 nM, a Ki [7] of 4920 nM and a Ratio [8] of 700.

Molecule `Nc1ccc(CNc2ncnc3c2ncn3C2O[C@H](CO)[C@@H](O)[C@H]2O)cc1I` (stereo partly specified) has a Ki (Adenosine receptor A1 [2]) of 0.7 nM.

Molecule `CCCCC#Cc1nc(N)c2ncn([C@@H]3O[C@H](CO)[C@@H](O)[C@H]3O)c2n1` has a Ki (Adenosine receptor A1 [1]) of 147 nM.

`Cn1c(=O)c2c(nc(C3CCCCC3)n2C)n(C)c1=O` showed a Ki (Adenosine A2 receptor [6]) of 0.19 nM.

Molecule `OC[C@H]1O[C@@H](n2cnc3c(Nc4ccccc4)ncnc32)[C@H](O)[C@@H]1O` has a Ki [7] of 663 nM.

`C[C@H](Cc1ccc(O)c(I)c1)Nc1ncnc2c1ncn2[C@@H]1O[C@H](CO)[C@@H](O)[C@H]1O` gave a Ki (Adenosine receptor A1 [2]) of 0.94 nM.

With `Nc1nc(-c2ccccc2)nc2c1cnn2-c1ccccc1` the Ki (Adenosine receptor A1 [1]) was 23 nM.

In the case of `CCCCCCCCCCCCCCCCCC(=O)NCCNC(=O)Cc1ccc(NC(=O)Cc2ccc(Nc3ncnc4c3ncn4C3O[C@H](CO)[C@@H](O)[C@H]3O)cc2)cc1` (stereo partly specified), the Ki (Adenosine receptor A1 [2]) is reported as 0.22 nM, the Ki [7] is reported as 8400 nM and the Ratio [8] is reported as 38000.

`Nc1nc(OCCC2CCCCC2)nc2c1ncn2C1O[C@@H](CO)[C@H](O)[C@@H]1O` (stereo partly specified) was tested, and the Ki (Adenosine receptor A1 [1]) was 1500 nM.

`Cn1cnc2c(NC3CC4CCC3C4)ncnc21` (stereo unspecified) showed a Ki (Adenosine receptor A1 [9]) of 10 nM and a Ki (Adenosine A2 receptor [10]) of 6100 nM.

`CCNC(=O)[C@H]1OC(n2cnc3c(N)nc(NCCc4ccc(CCC(=O)NCC/N=C(\S)Nc5ccc(N=C=S)cc5)cc4)nc32)[C@H](O)[C@@H]1O` (stereo partly specified) was tested, and the Ki (Adenosine A2 receptor [11]) was 7.1 nM and the Ki (Adenosine receptor A1 [1]) was 280 nM.
